Here are results for 1 compound from PMC9227536, “Prediction of Pharmacokinetics of IDP-73152 in Humans Using Physiologically-Based Pharmacokinetics” (Pharmaceutics, 2022).

SMILES strings stand for the structures. Like-named read-outs stand apart in the source and are kept apart here.

One data set has as its system the bacterial strains. The data set is described as follows: In vitro minimum inhibitory concentration, preliminary screening. The note with it: preliminary screening study, against the bacterial strains. In kind it is cell-based.
A short description of data set [1]: PK study in rats (intravenous and oral). The class given is in vivo, Male Sprague Dawley rats. The note with it: for Vd / clearance: iv, 10 mg/kg; for Vd: read-out: Vss; for clearance: read-out: CLp (converted); for Tmax: 20 mg/kg. How it is done:
The in vivo experimental protocol was approved by the Institutional Animal Care and Use Committee of Research Laboratory at Ildong pharmaceutical Co., Ltd. (Ref. No.: IDL-PDF-001 and 09005-11004). Animals were acclimatized to the laboratory conditions for at least 1 week before the experiments and were kept in the standardized conditions (20–25 °C, 55 ± 5% humidity, and a 12 h light/dark cycle). The animals fasted overnight prior to drug administration, and food was resupplied 4 h post-dose. Male Sprague Dawley rats (Orient Bio Inc., Seongnam, Korea), weighing 194.7 g to 205.4 g, were used in this study. IDP-73152 was administered to rats at a single dose of 2.5, 5, or 10 mg/kg via tail vein injection (the injection volume fixed at 2 mL/kg in saline). […] Blood samples (100 μL) were collected from the jugular vein at 0.167, 0.33, 0.5, 1, 2, 4, and 8 h after the administration. Plasma was separated/collected by centrifugation of the blood samples for 5 min at 10,000× g/4 °C and stored at −80 °C until analysis. When necessary, the biliary and renal excretion of IDP-73152 were studied in bile duct-cannulated rats after the intravenous injection (5 mg/kg) to investigate its route(s) of excretion in rats. Bile and urine samples were collected up to 8 h (i.e., approximately 5 times of the terminal phase half-life) after the administration and the samples were stored at −80 °C until the analysis. The cumulative excretion of the bile and the urine to infinite time was determined by assuming that the excretion was practically completed by the last collection time. When necessary for a model independent PK analysis, a standard moment analysis was carried out with WinNonlin software using either representative (for the study with mice) or individual (for the study with rats, dogs, and humans) concentration–time profile(s). For the calculation of PBPK models, Berkeley Madonna 8.3.18 (Albany, CA, USA) was used with the fourth-order Runge–Kutta method for numerical integration.

Another data set is described as follows: Stability in plasma, rat. The class given is in vitro ADME, rats. As to the method: The unbound fractions of IDP-73152 in various matrices were measured according to the manufacturer's instructions for the rapid equilibrium dialysis (RED) device (ThermoFisher Scientific, Waltham, MA, USA). Briefly, IDP-73152 was added to the plasma or the microsomal/hepatocyte incubation buffer from various species (i.e., mouse, rat, dog, and human for microsomal incubation; rat for hepatocyte incubation) to obtain final concentrations of the compound at 0.3, 1, and 3 μM. After the membrane insert was placed in the RED plate, the solution containing IDP-73152 was added (400 μL) to the sample chamber, and the dialysis buffer (600 μL) was added to the buffer chamber. The RED plate was sealed with parafilm and then incubated at 37 °C in the orbital shaker (Lab Companion, Daejeon, Korea) at 100 rpm for 5 h. […] The IDP-73152 concentration in the buffer/sample chambers (i.e., CBuffer Chamber and CSample Chamber) was determined by an assay. Thus, the fraction unbound was defined as:(2) % Fraction unbound=(CBuffer Chamber/CSample Chamber)×100% When necessary, the stability of IDP-73152 in the matrix was also determined at 5 h. […] Accordingly, the kinetics of IDP-73152 instability were determined in the rat blood at a final concentration of 0.3 μM. […]

In data set [2] the test system is methicilin-resistant Staphylococus aureus. The following applies: infected mice, twice-a-day dosing; cited from earlier work.
Data set [3] can be described thus: Blood partitioning (LC-MS/MS-based depletion method), dog. The note with it: whole blood, dogs blood, 0.3, 1, 3 μM, read-out: BP (blood-to-plasma concentration ratio). In kind it is in vitro ADME. As to the method: In this study, the partitioning of IDP-73152 in blood samples obtained from mice, rats, dogs, and humans was determined using the LC-MS/MS-based depletion method with slight modifications. DP-73152 was added to an aliquot (1 mL) of blank blood or plasma at a final concentration of 0.3, 1, or 3 μM. The mixture was incubated at 37 °C in a water bath for 60 min. After the incubation, the plasma was separated by centrifugation of the blood samples for 5 min at 10,000× g/4 °C and stored at -80 °C until analysis. The blood-to-plasma concentration ratio (BP) was calculated using the equation:(3) BP=[…], where […] is the concentration of the compound at the corresponding blood concentration in the plasma, and CPL is the concentration from the plasma sample separated from the incubated blood.

The mark [4] stands for this setting: male, Sprague Dawley, rat, plasma, intravenous, across doses of 2.5, 5, and 10 mg/kg.

Turning to `CC(C)(C)[C@H](NC(=O)[C@H](CC1CCCC1)CN(O)C=O)C(=O)N1CCC(NCc2cc(F)c(F)cc2F)CC1` [IDP-73152], the “in vitro minimum inhibitory concentration values” with the bacterial strains was “comparable to, or less than, those of linezolid and vancomycin”. In addition, the AUC(0-inf) in data set [1] (male, Sprague Dawley, rat, plasma, intravenous 2.5 mg/kg, read-out: Observed AUCinf) is 1320 ± 130 ng·h/mL; in data set [1] (male, Sprague Dawley, rat, plasma, intravenous 5 mg/kg, read-out: Observed AUCinf), 3270 ± 1820 ng·h/mL; in data set [1] (male, Sprague Dawley, rat, plasma, intravenous 10 mg/kg, read-out: AUCinf), 5030 ± 380 ng·h/mL; in data set [1] (male, Sprague Dawley, rat, plasma, oral 20 mg/kg, read-out: AUCinf) it was 5570 ± 1590 ng·h/mL. Further, the half-life in data set [1] (male, Sprague Dawley, rat, plasma, intravenous 10 mg/kg, read-out: t1/2 (converted)) was 1.43 ± 0.11 h; in data set [1] (male, Sprague Dawley, rat, plasma, oral 20 mg/kg, read-out: t1/2 (terminal phase half-life) (converted)) it was 2.97 ± 1.4 h. The Vd is 2.54 ± 0.26 L/kg in data set [1] (male, Sprague Dawley, rat, plasma, intravenous 10 mg/kg, moment analysis) and 2.45 to 2.78 L/kg in data set [1] (setting [4]). Moreover, the clearance in data set [1] (male, Sprague Dawley, rat, plasma, intravenous 10 mg/kg) is around 33.3 mL/min/kg; in data set [1] (setting [4]), 30.8 to 33.3 mL/min/kg. In data set [1] (male, Sprague Dawley, rat, plasma, oral 20 mg/kg), this compound gave a Cmax of 1650 ± 440 ng/mL. In data set [1] (male, Sprague Dawley, rat, plasma, oral 20 mg/kg vs intravenous 10 mg/kg, read-out: F (bioavailability)), the bioavailability came to 55.3%. Further, the Tmax in data set [1] (male, Sprague Dawley, rat, plasma, po, oral 20 mg/kg, read-out: Tmax) is 0.667 h; in data set [1] (oral 20 mg/kg), 0.638 ± 0.29 h. In addition, the “stability in blood and plasma” value in the data set “Stability in plasma, rat” (rat blood and plasma, preliminary study) was “unstable”. For the same compound, in the data set “Stability in plasma, rat” (rats plasma, 5 h, 37 °C), the “percentage remaining in plasma at 5 h” value came out at 65.3 ± 13.7%. The “ED50 (oral dose at which the survival rate was 50%)” value in data set [2] is listed as 16.6 mg/kg. In addition, the blood plasma ratio at 60 min in data set [3] is 1.45 ± 0.11.
